For three molecules, MIC, MBC and mycoplasma elimination results are on record in patent US5051419A, “Prevention or elimination of mycoplasma contamination of animal or plant cell cultures” (Dainippon Pharmaceutical Co., Ltd., priority 1988, dated 1991).

Molecules are shown by their SMILES. Values after ≈ are worked out from the molar mass of the structure shown. Bounds are passed on as bounds.

Assay [1] concerns M. salivarium PG20. Kind of assay: Anti-mycoplasmal activity (MIC), agar-dilution method. The assay is classed as cell-based, Mycoplasma salivarium. The settings on record: Metamycoplasma salivarium; agar dilution; M. salivarium PG20; read-out: MIC. How it is done:
(§1) The minimum growth inhibitory concentrations (MIC; μg/ml) of the test chemicals were measured by the agar-dilution method.
(§2) (1) Preparation of a mycoplasma suspension for inoculation
(§3) A stored frozen suspension of mycoplasma (0.2 to 0.3 ml) was inoculated in 2 to 3 ml of a preculture medium to be described later. It was serially diluted tenfold until the dilution ratio reached 10,000 times. These diluted solutions were cultivated at 37° C. for 2 to 7 days. A culture having the highest dilution ratio was selected from those cultures in which a color change of the media was noted as a result of mycoplasma growth. It was diluted to 100 times with the preculture medium to prepare a mycoplasma suspension for inoculation.
(§4) The following preculture media were used.
(§5) For other mycoplasma species, Chanock liquid medium (pH 6.8) containing 0.2% arginine was used.
(§6) (2) Preparation of agar plates containing the test chemicals
(§7) A 1,000 μg/ml aqueous solution of each test chemical was prepared (a difficultly-soluble chemical was dissolved by adding an equimolar amount of sodium hydroxide; the same applies hereinafter). The solution was used as a base solution and its twofold serial dilutions were prepared. The diluted solutions were pipetted on plastic petri dishes each in an amount of 1 ml. The Chanock agar medium (for Mycoplasma hyorhinis, 0.5% mucin was further added) described at page 9 of the above cited "Procedures for Isolation and Identification of Human, Animal and Plant Mycoplasmas" was heated and kept at 55° C. and put in an amount of 9 ml in each of the petri dishes containing the test chemicals and fully mixed with the test chemicals to prepare agar plates containing the test chemicals.
(§8) The mycoplasma suspension for inoculation prepared by the procedure described in section (1) was inoculated in an amount of about 3 microliters on each of the chemical-containing agar plates by means of a Cathra-replicator (3 mm pin). The plates on which Mycoplasma pneumoniae, Mycoplasma arginini, and Acholeplasma laidlawii and Mycoplasma hyorhinis were inoculated were tightly packed in a plastic bag together with the plasic petri dishes including water-immersed absorbent cotton. Mycoplasma pneumoniae was aerobically cultivated at 37° C. under highly humid conditions for 7 days; and Mycoplasma arginini and Acholeplasma laidlawii, for 2 days. The other mycoplasma species were cultivated anaerobically for 2 days by using a GasPak anaerobic system (BBL). After the cultivation, growth of mycoplasma were observed under an OLYMPUS microscope (20-100 X). The lowest concentration of the test chemical at which no growth of mycoplasma was noted is defined as MIC.
(In general: In agar dilution the substance is mixed into plates at graded concentrations.)

Assay [2] relates to M. arginini G230. The assay is described as above. The note with it: Mycoplasmopsis arginini; agar dilution; M. arginini G230; read-out: MIC. It counts as cell-based, Mycoplasma arginini. The method, then: as §1, §2, §3, §4, §5, §6, §7, §8
Assay [3] concerns M. hyorhinis BST7. The description is as above. It counts as cell-based, Mycoplasma hyorhinis. The settings on record: Mesomycoplasma hyorhinis; agar dilution; M. hyorhinis BST7; read-out: MIC. The method, then:
as §1, §2, §3, §4
For Mycoplasma hyorhinis, a liquid medium (pH 7.8) for isolation of Mycoplasma hyorhinis [Journal of the Japan Veterinary Medical Association,32, 34-38 (1979)] was used.
as §6, §7, §8

The subject of assay [4] is M. arginini G-230. Kind of assay: Anti-mycoplasmal activity (MIC, MMC), liquid dilution method. The assay is classed as cell-based, Mycoplasma arginini. The settings on record: Mycoplasmopsis arginini, liquid dilution, M. arginini G-230; for MBC: G230, 120 h, read-out: MMC; for MIC: G230, read-out: MIC. How it is done:
The minimum growth inhibitory concentration (MIC, μg/ml) and minimum mycoplasmacidal concentration (MMC, μg/ml) of test chemicals were measured by the liquid dilution method. The method of measuring MIC in this example differs from that used in Test Example 1.
A 1,000 μg/ml aqueous solution of a test chemical was prepared, and diluted to 5 times with a preculture medium. The dilution (200 μg/ml) was serially diluted twofold with the same medium in a 8-well reservoir. Fifty microliters of each diluted solution was distributed in the wells of a microplate. A well to which no test chemical was added was used as a control.
A mycoplasma suspension for inoculation prepared as in Test Example 1 was pipetted in an amount of 50 microliters to each of the wells. The microplates were sealed by a plate seal, shaken by a micromixer, and cultivated at 37° C. for 5 days. In the control to which no test chemical was added, color change of the medium by the growth of mycoplasma was observed after two days from the start of the cultivation. At this time, 3 microliters of the liquid culture was inoculated in drug-free Chanock agar medium by using a Cathra-replicator. The liquid culture and the agar medium were further cultivated at 37° C. for 3 days (anaerobically in the case of M. orale, and aerobically in the case of A. laidlawii and M. arginini). MIC and MMC were determined from the results of observation on the 5th day. MIC was defined as the lowest concentration of the test chemical at which growth of mycoplasma in the drug-containing liquid medium was not noted, and MMC, as that in the drug-free agar medium.

Assay [5] deals with M. arginini G-230. The experiment in a line: Activity of eliminating artificially contaminated mycoplasma from L-929 cells. The assay is classed as cell-based, Mycoplasma arginini. The method, then:
Animal cells, experimentally contaminated by mycoplasma, were cultivated for 4 days in a medium containing the test chemical and then sub-cultivated in a medium to which the test chemical was not added in order to determine whether the mycoplasma re-grew (re-contamination).
(1) Preparation of mycoplasma-contaminated cells
The mycoplasmas described in Table 3 were each pre-cultivated as in Test Example 1, (1). Two milliliters of the cultures were centifuged at 1,500×g for 30 minutes to separate the mycoplasmas. The isolated mycoplasmas were suspended in 2 ml of 10%-FBS-MEM medium (Eagle's minimum essential medium supplemented with 10% fetal bovine serum and 100 U/ml of penicillin G).
Separately, mouse fibroblast cells L-929 was suspended in 10%-FBS-MEM medium so that their density became 2.5×10^4 /ml. Four milliliters of the suspension was put in a petri dish (diameter 6 cm) for tissue culture including two circular cover glasses (diameter 1.8 cm), and then 1 ml of the mycoplasma suspension described above was added. The mixture was incubated at 37° C. in 5% CO2 humidified atmosphere for 3 days, and then sub-cultivated twice in order to obtain mycoplasma-contaminated cells. Mycoplasma-contamination was confirmed by the highly specific DNA-fluorochromic staining method (the above cited "Procedures for Isolation and identification of Human, Animal and Plant Mycoplasmas", pages 95-97).
(2) Experiment of eliminating mycoplasma contamination
Mycoplasma-contaminated L-929 cells were cultivated as described in the preceding section. A 1,000 μg/ml aqueous solution of a test chemical was prepared, and diluted to predetermined concentrations with Eagle's minimum essential medium. The diluted solutions were added to the culture medium. Two petri dishes were used for each concentration of the test chemical, and two circular cover glasses were put in one of them for examination of mycoplasma. No cover glass was put in the other petri dish, and it was used for subcultivation. Cultivation in the test chemical-containing medium was carried out for 4 days, and thereafter, the cultivation was continued for 3 weeks in a drug-free medium. Medium replacement was effected every 3 to 4 days, and subcultivation was carried out once a week. Examination for mycoplasma contamination was performed on the 4th and 7th days, and thereafter every week. The mycoplasmas were detected by the highly specific DNA-fluorochromic staining method.

Turning to `CC1CN(c2c(F)c(N)c3c(=O)c(C(=O)O)cn(C4CC4)c3c2F)CCN1` (stereo not shown) [Compound 1], the MIC is 0.2 µg/mL (≈ 0.529 µM) in assay [1], 0.1 µg/mL (≈ 0.264 µM) in assay [2], 0.2 µg/mL (≈ 0.529 µM) in assay [3] and 0.1 µg/mL (≈ 0.264 µM) in assay [4]. Moreover, the MBC in assay [4] amounted to 0.1 µg/mL (≈ 0.264 µM). Further, the mycoplasma elimination result in assay [5] (0.2 μg/ml, day 0) was “+”; in assay [5] (0.2 μg/ml, day 4), “+”; in assay [5] (0.2 μg/ml, day 7), “+”; in assay [5] (0.2 μg/ml, day 14), “+”; in assay [5] (0.2 μg/ml, day 28), “+”; in assay [5] (0.39 μg/ml, day 0) it was “+”. Further, the mycoplasma elimination entry in assay [5] (0.39 μg/ml, day 4) was “-”; in assay [5] (0.39 μg/ml, day 7) it was “-”; in assay [5] (0.39 μg/ml, day 14), “-”; in assay [5] (0.39 μg/ml, day 28), “-”.

In the case of `CN(C)c1ccc(O)c2c1C[C@H]1C[C@H]3[C@H](N(C)C)C(O)=C(C(N)=O)C(=O)[C@@]3(O)C(O)=C1C2=O` [Compound 3, minocycline], the MIC was 0.1 µg/mL (≈ 0.219 µM) in assay [1], 0.39 µg/mL (≈ 0.852 µM) in assay [2], 0.1 µg/mL (≈ 0.219 µM) in assay [3] and 0.39 µg/mL (≈ 0.852 µM) in assay [4]. Also, in assay [4], the MBC is over 100 µg/mL. The mycoplasma elimination result was “+” in assay [5] (12.5 μg/ml, day 0); “-” in assay [5] (12.5 μg/ml, day 4); “-” in assay [5] (12.5 μg/ml, day 7); “+” in assay [5] (12.5 μg/ml, day 14); “+” in assay [5] (12.5 μg/ml, day 28).

Regarding `NCC1CN(c2c(F)c(N)c3c(=O)c(C(=O)O)cn(C4CC4)c3c2F)CCO1` (stereo not shown) [Compound A, 5-amino-7-(2-aminomethylmorpholino)-1-cyclopropyl-6,8-difluoro-1,4-dihydro-4-oxoquinoline-3-carboxylic acid], the minimum inhibitory concentration (MIC) was determined as 0.1 µg/mL (≈ 0.254 µM) in assay [1], 0.05 µg/mL (≈ 0.127 µM) in assay [2], 0.05 µg/mL (≈ 0.127 µM) in assay [3] and 0.05 µg/mL (≈ 0.127 µM) in assay [4]. For the same molecule, the MBC in assay [4] was 0.05 µg/mL (≈ 0.127 µM). Also, the mycoplasma elimination result in assay [5] (0.1 μg/ml, day 0) is reported as “+”; in assay [5] (0.1 μg/ml, day 4), “+”; in assay [5] (0.1 μg/ml, day 7) it was “+”; in assay [5] (0.1 μg/ml, day 14), “+”; in assay [5] (0.1 μg/ml, day 28) it was “+”; in assay [5] (0.2 μg/ml, day 0), “+”. For the same molecule, the mycoplasma elimination result is recorded as “-” in assay [5] (0.2 μg/ml, day 4); “-” in assay [5] (0.2 μg/ml, day 7); “-” in assay [5] (0.2 μg/ml, day 14); “-” in assay [5] (0.2 μg/ml, day 28).

In general, MIC refers to the smallest concentration in the dilution series that meets the test's criterion for growth inhibition.
